Assay results as given in patent US7589087B2 (Janssen Pharmaceutica, N.V., priority 2006, dated 2009).

Target: T1, human histamine H4 receptor (Homo sapiens, UniProt Q9H3N8)
T1 construct: expressed in transfected cells; host or cells: SK-N-MC cells or COS7 cells, transiently transfected; membranes prepared
Test: Binding Assay on Recombinant Human Histamine H4 Receptor (3H-histamine competition, membranes of transfected SK-N-MC or COS7 cells); further: ligand 5 nM
Procedure: SK-N-MC cells or COS7 cells were transiently transfected with pH4R and grown in 150 cm^2 tissue culture dishes. Cells were washed with saline solution, scraped with a cell scraper and collected by centrifugation (1000 rpm, 5 min). Cell membranes were prepared by homogenization of the cell pellet in 20 mM Tris-HCl with a polytron tissue homogenizer for 10 sec at high speed. Homogenate was centrifuged at 1000 rpm for 5 min at 4° C. The supernatant was then collected and centrifuged at 20,000×g for 25 min at 4° C. The final pellet was resuspended in 50 mM Tris-HCl. […] Incubation occurred at room temperature for 45 min. Membranes were harvested by rapid filtration over Whatman GF/C filters and washed 4 times with ice-cold 50 mM Tris HCl. Filters were then dried, mixed with scintillant and counted for radioactivity.

Ki	Compound
37 nM	CN1CCC(CCCN(C)c2ccc(-c3nc4c(F)c(F)ccc4[nH]3)cn2)CC1 [Example 28, [5-(4,5-Difluoro-1H-benzoimidazol-2-yl)-pyridin-2-yl]-methyl-[3-(1-methyl-piperidin-4-yl)-propyl]-amine]
89 nM	CN1CCC(CCCNc2ccc(-c3nc4c(F)c(F)ccc4[nH]3)cn2)CC1 [Example 29, [5-(4,5-Difluoro-1H-benzoimidazol-2-yl)-pyridin-2-yl]-[3-(1-methyl-piperidin-4-yl)-propyl]-amine]
520 nM	CN1CCC(CCCNc2ccc(-c3nc4cc(C(=O)c5ccccc5)ccc4[nH]3)cn2)CC1 [Example 30, (2-{6-[3-(1-Methyl-piperidin-4-yl)-propylamino]-pyridin-3-yl}-1H-benzoimidazol-5-yl)-phenyl-methanone]
2670 nM	CN1CCC(CCCNc2ccc(-c3nc4c(Cl)cccc4[nH]3)cn2)CC1 [Example 31, [5-(4-Chloro-1H-benzoimidazol-2-yl)-pyridin-2-yl]-[3-(1-methyl-piperidin-4-yl)-propyl]-amine]
41 nM	CN1CCC(CCCNc2ccc(-c3nc4cc(F)ccc4[nH]3)cn2)CC1 [Example 32, [5-(5-Fluoro-1H-benzoimidazol-2-yl)-pyridin-2-yl]-[3-(1-methyl-piperidin-4-yl)-propyl]-amine]
680 nM	Cc1cc(C)c2nc(-c3ccc(NCCCN4CCN(C)CC4)nc3)[nH]c2c1 [Example 33, [5-(4,6-Dimethyl-1H-benzoimidazol-2-yl)-pyridin-2-yl]-[3-(4-methyl-piperazin-1-yl)-propyl]-amine]
570 nM	CC(C)N(CCCN1CCN(C)CC1)c1ccc(-c2nc3cc(Cl)ccc3[nH]2)cn1 [Example 34, [5-(5-Chloro-1H-benzoimidazol-2-yl)-pyridin-2-yl]-isopropyl-[3-(4-methyl-piperazin-1-yl)-propyl]-amine]
470 nM	Cc1ccc2[nH]c(-c3ccnc(NC(=O)CCCC4CCN(C)CC4)c3)nc2c1C [Example 35, N-[4-(4,5-Dimethyl-1H-benzoimidazol-2-yl)-pyridin-2-yl]-4-(1-methyl-piperidin-4-yl)-butyramide]
660 nM	CN1CCC(CCCC(=O)Nc2cc(-c3nc4cc(Cl)ccc4[nH]3)ccn2)CC1 [Example 36, N-[4-(5-Chloro-1H-benzoimidazol-2-yl)-pyridin-2-yl]-4-(1-methyl-piperidin-4-yl)-butyramide]
3470 nM	Cc1ccc2[nH]c(-c3ccc(N(CCCC4CCN(C)CC4)C(C)C)nc3)nc2c1C [Example 37, [5-(4,5-Dimethyl-1H-benzoimidazol-2-yl)-pyridin-2-yl]-isopropyl-[3-(1-methyl-piperidin-4-yl)-propyl]-amine]
3330 nM	Cc1cccc2[nH]c(-c3ccnc(NC(=O)CCCC4CCN(C)CC4)c3)nc12 [Example 38, N-[4-(4-Methyl-1H-benzoimidazol-2-yl)-pyridin-2-yl]-4-(1-methyl-piperidin-4-yl)-butyramide]
